Experimental data from ChEMBL document CHEMBL4043296 (J Med Chem, 2018).

What was measured:
D(2) dopamine receptor = D(2) dopamine receptor (Homo sapiens, UniProt P14416); test: Displacement of [3H]N-methylspiperone from human dopamine D2 receptor expressed in HEK293 cell membranes after 1 hr by scintillation counting method
D(3) dopamine receptor = D(3) dopamine receptor (Homo sapiens, UniProt P35462); test: Displacement of [3H]N-methylspiperone from human dopamine D3 receptor expressed in HEK293 cell membranes after 1 hr by scintillation counting method
Chain of D(3) dopamine receptor (P35462 whole entry): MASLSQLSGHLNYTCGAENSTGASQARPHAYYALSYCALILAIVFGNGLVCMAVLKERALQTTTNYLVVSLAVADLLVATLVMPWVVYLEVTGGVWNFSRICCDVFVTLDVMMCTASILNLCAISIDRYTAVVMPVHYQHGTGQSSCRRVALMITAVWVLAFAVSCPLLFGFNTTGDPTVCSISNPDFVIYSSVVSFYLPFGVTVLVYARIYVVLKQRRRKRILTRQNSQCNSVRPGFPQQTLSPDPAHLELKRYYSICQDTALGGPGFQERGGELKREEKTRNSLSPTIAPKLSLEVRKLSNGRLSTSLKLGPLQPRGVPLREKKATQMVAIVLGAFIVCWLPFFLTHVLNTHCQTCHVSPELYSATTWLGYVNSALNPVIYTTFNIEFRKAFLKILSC

D(4) dopamine receptor [1] = molecular target: T1, D(4) dopamine receptor (Homo sapiens, UniProt P21917); test: Displacement of [3H]N-methylspiperone from human dopamine D4 receptor expressed in HEK293 cell membranes after 1 hr by scintillation counting method
T1 sequence (P21917 whole entry): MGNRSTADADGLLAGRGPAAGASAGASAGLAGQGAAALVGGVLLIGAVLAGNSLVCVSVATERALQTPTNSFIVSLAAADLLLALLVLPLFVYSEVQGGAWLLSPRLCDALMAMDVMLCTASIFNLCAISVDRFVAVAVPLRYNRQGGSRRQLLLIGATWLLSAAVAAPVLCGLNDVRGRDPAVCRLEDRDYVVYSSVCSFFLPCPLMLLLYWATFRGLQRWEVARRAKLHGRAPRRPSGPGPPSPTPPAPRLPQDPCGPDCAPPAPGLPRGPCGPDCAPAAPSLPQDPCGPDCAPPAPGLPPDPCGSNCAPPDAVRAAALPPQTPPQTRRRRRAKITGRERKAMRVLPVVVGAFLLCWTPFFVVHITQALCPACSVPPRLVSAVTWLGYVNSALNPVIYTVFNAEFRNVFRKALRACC

Homo sapiens = species on record: Homo sapiens; test: Selectivity ratio of Ki for human dopamine D2 receptor to Ki for human dopamine D4 receptor
[2] = molecular target: T2, Muscarinic acetylcholine receptor M1 (Homo sapiens, UniProt P11229); test: Displacement of [3H]NMS from human muscarinic M1 receptor expressed in CHO cell membranes after 2 hrs by liquid scintillation counting method
T2 sequence (P11229 whole entry): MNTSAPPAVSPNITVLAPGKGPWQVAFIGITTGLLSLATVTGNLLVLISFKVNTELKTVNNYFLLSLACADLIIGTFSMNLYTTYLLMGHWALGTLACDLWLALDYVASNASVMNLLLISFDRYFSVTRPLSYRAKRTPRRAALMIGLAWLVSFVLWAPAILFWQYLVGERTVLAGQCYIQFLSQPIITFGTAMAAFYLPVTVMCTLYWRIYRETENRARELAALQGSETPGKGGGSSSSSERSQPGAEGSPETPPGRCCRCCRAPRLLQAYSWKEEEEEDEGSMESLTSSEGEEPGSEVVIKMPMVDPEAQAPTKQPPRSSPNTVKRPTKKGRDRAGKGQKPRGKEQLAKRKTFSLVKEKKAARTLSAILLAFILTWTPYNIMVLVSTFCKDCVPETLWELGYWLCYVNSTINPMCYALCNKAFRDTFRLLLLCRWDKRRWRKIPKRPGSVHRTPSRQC

[3] = molecular target: T3, Muscarinic acetylcholine receptor M2 (Homo sapiens, UniProt P08172); test: Displacement of [3H]NMS from human muscarinic M2 receptor expressed in CHO cell membranes after 2 hrs by liquid scintillation counting method
T3 sequence (P08172 whole entry): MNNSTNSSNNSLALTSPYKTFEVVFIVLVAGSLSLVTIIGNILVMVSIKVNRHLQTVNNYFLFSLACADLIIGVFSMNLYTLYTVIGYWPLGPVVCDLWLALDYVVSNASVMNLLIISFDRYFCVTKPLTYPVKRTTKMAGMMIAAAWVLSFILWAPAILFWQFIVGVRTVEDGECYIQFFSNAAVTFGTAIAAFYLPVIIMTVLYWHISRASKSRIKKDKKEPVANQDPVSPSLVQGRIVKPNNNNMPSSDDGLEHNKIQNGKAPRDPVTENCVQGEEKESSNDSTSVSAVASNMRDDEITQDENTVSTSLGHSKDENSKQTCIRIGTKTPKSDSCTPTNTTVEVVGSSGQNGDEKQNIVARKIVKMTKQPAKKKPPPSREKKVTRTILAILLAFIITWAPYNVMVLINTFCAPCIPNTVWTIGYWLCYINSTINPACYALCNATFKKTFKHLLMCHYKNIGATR

[4] = molecular target: Muscarinic acetylcholine receptor M3 (Homo sapiens, UniProt P20309); test: Displacement of [3H]NMS from human muscarinic M3 receptor expressed in CHO cell membranes after 2 hrs by liquid scintillation counting method
Chain of Muscarinic acetylcholine receptor M3 (P20309 whole entry): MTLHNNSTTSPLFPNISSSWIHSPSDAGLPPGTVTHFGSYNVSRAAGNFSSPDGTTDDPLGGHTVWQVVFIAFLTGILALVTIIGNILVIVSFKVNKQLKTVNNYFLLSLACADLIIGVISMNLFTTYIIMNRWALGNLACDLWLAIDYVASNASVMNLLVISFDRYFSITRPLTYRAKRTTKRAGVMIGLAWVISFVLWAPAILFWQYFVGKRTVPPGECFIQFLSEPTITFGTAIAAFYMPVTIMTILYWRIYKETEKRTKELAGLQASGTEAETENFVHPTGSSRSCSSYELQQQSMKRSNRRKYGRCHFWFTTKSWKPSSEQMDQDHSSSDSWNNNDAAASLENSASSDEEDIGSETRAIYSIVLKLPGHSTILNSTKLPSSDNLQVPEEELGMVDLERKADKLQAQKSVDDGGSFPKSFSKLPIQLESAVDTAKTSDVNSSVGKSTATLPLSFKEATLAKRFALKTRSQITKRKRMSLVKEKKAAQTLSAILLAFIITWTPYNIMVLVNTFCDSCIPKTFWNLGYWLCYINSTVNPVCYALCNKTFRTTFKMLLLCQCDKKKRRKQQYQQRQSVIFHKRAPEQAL

[5] = molecular target: T4, Muscarinic acetylcholine receptor M4 (Homo sapiens, UniProt P08173); test: Displacement of [3H]NMS from human muscarinic M4 receptor expressed in CHO cell membranes after 2 hrs by liquid scintillation counting method
T4 sequence (P08173 whole entry): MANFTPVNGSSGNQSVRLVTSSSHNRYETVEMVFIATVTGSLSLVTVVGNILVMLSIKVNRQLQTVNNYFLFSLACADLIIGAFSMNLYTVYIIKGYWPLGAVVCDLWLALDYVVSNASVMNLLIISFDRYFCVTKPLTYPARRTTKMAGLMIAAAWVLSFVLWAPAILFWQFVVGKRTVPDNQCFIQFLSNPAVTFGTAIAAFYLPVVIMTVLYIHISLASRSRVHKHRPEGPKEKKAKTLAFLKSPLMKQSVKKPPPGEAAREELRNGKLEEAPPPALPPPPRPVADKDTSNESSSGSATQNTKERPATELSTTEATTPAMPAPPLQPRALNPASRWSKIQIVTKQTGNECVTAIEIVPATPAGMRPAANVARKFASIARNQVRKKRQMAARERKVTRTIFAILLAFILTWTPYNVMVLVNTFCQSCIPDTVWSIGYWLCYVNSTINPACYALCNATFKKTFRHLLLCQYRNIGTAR

[6] = molecular target: T5, Muscarinic acetylcholine receptor M5 (Homo sapiens, UniProt P08912); test: Displacement of [3H]NMS from human muscarinic M5 receptor expressed in CHO cell membranes after 2 hrs by liquid scintillation counting method
T5 sequence (P08912 whole entry): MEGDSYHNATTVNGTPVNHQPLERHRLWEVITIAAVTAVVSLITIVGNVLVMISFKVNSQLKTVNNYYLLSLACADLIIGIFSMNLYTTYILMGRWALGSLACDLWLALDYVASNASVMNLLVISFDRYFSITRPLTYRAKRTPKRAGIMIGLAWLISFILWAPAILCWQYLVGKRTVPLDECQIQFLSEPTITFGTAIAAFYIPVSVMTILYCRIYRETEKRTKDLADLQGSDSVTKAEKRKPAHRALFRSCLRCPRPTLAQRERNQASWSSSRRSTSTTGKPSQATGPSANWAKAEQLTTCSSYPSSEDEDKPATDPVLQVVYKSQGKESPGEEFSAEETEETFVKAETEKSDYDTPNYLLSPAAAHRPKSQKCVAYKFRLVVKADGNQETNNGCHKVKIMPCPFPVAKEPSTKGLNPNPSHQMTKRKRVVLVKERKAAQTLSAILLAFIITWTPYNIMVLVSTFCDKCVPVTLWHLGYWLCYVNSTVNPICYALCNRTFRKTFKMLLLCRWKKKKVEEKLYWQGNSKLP

D(4) dopamine receptor [7] = molecular target: T1, D(4) dopamine receptor; test: Antagonist activity at human SP/Myc epitope-tagged dopamine D4 receptor expressed in HEK293T cells assessed as inhibition of dopamine-induced RLuc8-fused Galphai1 activation preincubated for 15 mins followed by dopamine induction measured after 2 mins by BRET assay; format: cell-based, HEK-293T
D(4) dopamine receptor [8] = molecular target: T1, D(4) dopamine receptor; test: Antagonist activity at human SP/Myc epitope-tagged dopamine D4 receptor expressed in HEK293T cells assessed as inhibition of dopamine-induced mVenus-fused beta-arrestin2 recruitment preincubated for 15 mins followed by dopamine induction measured after 2 mins by BRET assay; format: cell-based, HEK-293T

Chain of D(2) dopamine receptor (P14416 whole entry): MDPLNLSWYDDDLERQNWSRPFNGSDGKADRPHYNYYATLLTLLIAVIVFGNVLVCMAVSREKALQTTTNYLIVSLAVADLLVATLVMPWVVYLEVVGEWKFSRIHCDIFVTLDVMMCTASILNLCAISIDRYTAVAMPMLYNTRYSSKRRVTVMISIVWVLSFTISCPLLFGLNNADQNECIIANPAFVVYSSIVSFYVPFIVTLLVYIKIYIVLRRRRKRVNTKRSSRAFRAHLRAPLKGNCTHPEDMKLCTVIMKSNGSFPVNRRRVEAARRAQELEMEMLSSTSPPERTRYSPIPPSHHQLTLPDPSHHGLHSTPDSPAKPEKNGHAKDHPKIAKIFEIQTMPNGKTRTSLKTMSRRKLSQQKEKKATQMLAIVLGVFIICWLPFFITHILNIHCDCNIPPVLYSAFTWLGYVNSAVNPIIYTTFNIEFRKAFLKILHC

Structure (SMILES) | Ki (D(2) dopamine receptor) [µM] | Ki (D(3) dopamine receptor) [µM] | Ki (D(4) dopamine receptor [1]) [µM] | Ratio Ki (Homo sapiens) | Ki [2] [µM] | Ki [3] [µM] | Ki [4] [µM] | Ki [5] [µM] | Ki [6] [µM] | IC50 (D(4) dopamine receptor [7]) [µM] | IC50 (D(4) dopamine receptor [8]) [µM]
O=C1CCc2ccccc2N1CCCN1CCC(CCCO)CC1 | 0.661 | 0.589 | 0.0741 | 9 | – | – | – | – | – | – | –
CCCC1CCN(CCCN2C(=O)CCc3ccccc32)CC1 | 0.912 | 1.55 | 0.00525 | 174 | 2.51 | 1.91 | 2.34 | 1.66 | 1.95 | – | –
CC(C)Oc1cccnc1N(C)C1CCN(Cc2ccc(I)cc2)CC1 | – | – | – | 1720 | – | – | – | – | – | – | –
COc1cccc(CCC2=NCCN2CCc2ccccc2)c1 | – | – | 0.0955 | > 105 | – | – | – | – | – | – | –
CCCCN1CCN(CCCN2C(=O)CCc3ccccc32)CC1 | 5.13 | 3.89 | 0.316 | 16 | 2.69 | 4.17 | 7.08 | 3.16 | 9.12 | – | –

More lines, now with the values ahead:

Ki (D(2) dopamine receptor) [µM] | Ki (D(3) dopamine receptor) [µM] | Ki (D(4) dopamine receptor [1]) [µM] | Ratio Ki (Homo sapiens) | Ki [2] [µM] | Ki [3] [µM] | Ki [4] [µM] | Ki [5] [µM] | Ki [6] [µM] | IC50 (D(4) dopamine receptor [7]) [µM] | IC50 (D(4) dopamine receptor [8]) [µM] | Structure (SMILES)
4.47 | 3.72 | 0.257 | 17 | 12 | 11.5 | 14.1 | 9.33 | 24 | – | – | CC1CCN(CCCN2C(=O)CCc3ccccc32)CC1
0.525 | 0.282 | 0.00138 | 380 | 0.49 | 0.562 | 1.35 | 0.575 | 3.55 | – | – | CCCCCC1CCN(CCCN2C(=O)CCc3ccccc32)CC1
1.17 | 0.676 | 0.00437 | 269 | – | – | – | – | – | 0.126 | 0.151 | O=C1CCc2ccccc2N1CCCN1CCC(CCCCCO)CC1
– | – | – | 48 | – | – | – | – | – | – | – | COc1ccc(Cl)cc1OC[C@@H]1CN(Cc2ccc(Cl)cc2)CCO1
0.288 | 0.407 | 0.00214 | 135 | 0.263 | 0.204 | 0.501 | 0.2 | 0.759 | – | – | O=C1CCc2ccccc2N1CCCN1CCC(CCc2ccccc2)CC1
5.75 | 3.98 | 0.0288 | 200 | 2.29 | 1.78 | 6.61 | 5.13 | 7.94 | – | – | O=C1CCc2ccccc2N1CCCN1CCN(CCc2ccccc2)CC1
0.457 | 0.708 | 0.00195 | 234 | 2.88 | 2.4 | 4.68 | 1.29 | 2.04 | – | – | O=C1CCc2ccccc2N1CCCN1CCC(c2ccccc2)CC1
0.933 | 0.955 | 0.1 | 9 | – | – | – | – | – | – | – | O=C1CCc2ccccc2N1CCCN1CCC(CCCCCCCO)CC1
